Results: patent US20130102580A1, “COMPOSITIONS AND METHODS RELATED TO DEOXYCHOLIC ACID AND ITS POLYMORPHS” (Kythera Biopharmaceuticals, Inc., priority 2011, published 2013)

Tests used:
Type in all cases: physicochemical
[1] = Form conversions via heating (XRPD)
Procedure: 20 mg of DCA Form B was weighed in an alumina crucible and heated from 30° C. to 150° C. at a ramp rate of 10° C./min and then held at 150° C. for 30 minutes. The material was cooled to ambient temperature rapidly on the instrument and analyzed by XRPD.
19 mg of DCA Form B was weighed in an alumina crucible and heated from 30° C. to 135° C. at a ramp rate of 10° C./min and then held at 135° C. for 30 minutes. The material was cooled to ambient temperature rapidly on the instrument and analyzed by XRPD.

[2] = Slurry stability in EtOH/water (XRPD)
Procedure: To evaluate form stability under slurry conditions, Forms A and B were slurried in about 1:1.2 v/v EtOH/water at ambient temperature and at 50° C. […] Approximately 217 mg of DCA Form B was mixed with 1.5 mL of EtOH/water (1:2.37 v/v). The mixture was heated at 50° C. with stirring for 2 hours and an aliquot was filtered to isolate wet solids for XRPD analysis.

[3] = Drying experiments: form conversion and stability on drying under vacuum (XRPD, HPLC); conditions: for Degradation by HPLC after drying: dried further for 24 hours
Procedure: Conversion of Form C to Form B was evaluated at 40° C. under vacuum. Two different lots of 215 mg and 134 mg of Form C were dried under vacuum at 40° C.
To evaluate the stability of DCA Form B at 50° C. and 70° C., two lots of Form C were dried at 50° C. and 70° C. for 2 hours. […] The samples were dried further for 24 hours and retained for HPLC analysis.
Another drying study was performed to evaluate the stability of Form B DCA dried at 50° C. with deionized water (DI-water) and EtOH. Samples of DCA (2.0 g) were combined with DI water and EtOH. The samples were then dried under vacuum for an extended period of time at 50° C.
The form conversion of Form C to Form B at approximately 45° C. under vacuum was analyzed by XRPD every 20 minutes. FIG. 4 graphically illustrates the conversion of the Form C to Form B upon heating.
All the experiments were cooled at 10° C./h to 20° C. and left to stir overnight. A final portion of deionized water (Water #3) was added and the mixtures were stirred for 3 hours.

Humidity stress (XRPD) = experiment: Humidity stress (XRPD)
Procedure: Approximately 15 mg of Form B lot was stored at 95% relative humidity (RH) at ambient temperature. […] This surprising humidity/temperature stability of Form B was further evidenced from the following experiments. Form B samples were stored at 95% relative humidity (RH) and ambient temperature, and at 75% RH and 40° C. […] The increase of water content appeared to reach a plateau after an initial water sorption period.

[4] = about 1:1.2 v/v EtOH/water, ambient temperature

| Compound | Form conversion on heating (XRPD) ([1]; 30° C. to 135° C. at 10° C./min, held at 135° C. for 30 minutes) | Form conversion on heating (XRPD) ([1]; 30° C. to 150° C. at 10° C./min, held at 150° C. for 30 minutes) | Form conversion on slurrying (XRPD) ([2]; EtOH/water 1:2.37 v/v, 50° C., 4 hours) | Form conversion on slurrying (XRPD) ([2]; about 1:1.2 v/v EtOH/water, 50° C., 2 hours) | Form conversion on slurrying (XRPD) [2, 4] | Degradation by HPLC after drying ([3]; 50° C.) | Degradation by HPLC after drying ([3]; 70° C.) | Stability to prolonged heating ([3]; heating up to 70° C.) | Stability by HPLC when dried with DI-water and EtOH ([3]; under vacuum, extended period, 50° C.) | Form conversion under humidity stress (XRPD) (Humidity stress (XRPD); 75% RH, 40° C., 11 days) | Form conversion under humidity stress (XRPD) (Humidity stress (XRPD); 95% RH, ambient temperature, 10 days) | Form conversion under humidity stress (XRPD) (Humidity stress (XRPD); 95% RH, ambient temperature, 11 days) | Relative thermodynamic stability of the polymorphs ([1]; conversions observed upon heating: C→B→D→A) | Polymorphic form by XRPD after drying ([3]; dried at 50° C., 2 hours) | Polymorphic form by XRPD after drying ([3]; dried at 70° C., 2 hours) | Polymorphic form by XRPD after drying ([3]; under vacuum at 40° C., 2 hours, two lots) | Polymorphic form by XRPD after drying ([3]; under vacuum at 40° C., 18 hours) | Polymorphic form by XRPD after drying ([3]; under vacuum at 65° C., 60 hours, solids crystallized from EtOH/water) |
| --- | --- | --- | --- | --- | --- | --- | --- | --- | --- | --- | --- | --- | --- | --- | --- | --- | --- | --- |
| C[C@H](CCC(=O)O)[C@H]1CC[C@H]2[C@@H]3CC[C@@H]4C[C@H](O)CC[C@]4(C)[C@H]3C[C@H](O)[C@]12C [Form B, deoxycholic acid] | complete conversion to Form D | complete conversion to Form A | remained to be Form B | afforded Form C | did not show any form conversion | no degradation | no degradation | stable to prolonged heating at up to 70 °C | stable | no form conversion | no conversion to Form C | no form conversion | – | – | – | – | – | – |
| C[C@H](CCC(=O)O)[C@H]1CC[C@H]2[C@@H]3CC[C@@H]4C[C@H](O)CC[C@]4(C)[C@H]3C[C@H](O)[C@]12C [Form A, deoxycholic acid] | – | – | – | – | converted to Form C | – | – | – | – | – | – | – | most thermodynamically stable polymorph | – | – | – | – | – |
| C[C@H](CCC(=O)O)[C@H]1CC[C@H]2[C@@H]3CC[C@@H]4C[C@H](O)CC[C@]4(C)[C@H]3C[C@H](O)[C@]12C [Form C, deoxycholic acid] | – | – | – | – | – | – | – | – | – | – | – | – | – | form conversion to Form B was complete | form conversion to Form B was complete | converted to Form B | complete conversion to Form B | converted to Form B |
